Measured values as given in ChEMBL document CHEMBL4673288, “Structure-activity relationship of novel acridone derivatives as antiproliferative agents” (Bioorg Med Chem, 2021).
The source made the active and inactive calls. No cut-off for these calls is given here.

Experiments:
HeLa = experiment: Antiproliferative activity against human HeLa cells assessed as reduction in cell viability incubated for 72 hrs by SRB assay; format: functional, cell-based
HCT-116 = experiment: Antiproliferative activity against human HCT-116 cells assessed as reduction in cell viability incubated for 72 hrs by SRB assay; format: functional, cell-based; settings: HCT-116, 72 h
SW480 = experiment: Antiproliferative activity against human SW480 cells assessed as reduction in cell viability incubated for 72 hrs by SRB assay; format: functional, cell-based; settings: SW480, 72 h
[1] = molecular target: DNA topoisomerase 2-alpha (Homo sapiens) (UniProt P11388); experiment: Inhibition of recombinant human topoisomerase 2 alpha-mediated relaxation of supercoiled pBR322 DNA at 200 uM incubated for 30 mins by ethidium bromide staining based agarose gel electrophoresis method
Chain of DNA topoisomerase 2-alpha (Homo sapiens) (P11388 whole entry): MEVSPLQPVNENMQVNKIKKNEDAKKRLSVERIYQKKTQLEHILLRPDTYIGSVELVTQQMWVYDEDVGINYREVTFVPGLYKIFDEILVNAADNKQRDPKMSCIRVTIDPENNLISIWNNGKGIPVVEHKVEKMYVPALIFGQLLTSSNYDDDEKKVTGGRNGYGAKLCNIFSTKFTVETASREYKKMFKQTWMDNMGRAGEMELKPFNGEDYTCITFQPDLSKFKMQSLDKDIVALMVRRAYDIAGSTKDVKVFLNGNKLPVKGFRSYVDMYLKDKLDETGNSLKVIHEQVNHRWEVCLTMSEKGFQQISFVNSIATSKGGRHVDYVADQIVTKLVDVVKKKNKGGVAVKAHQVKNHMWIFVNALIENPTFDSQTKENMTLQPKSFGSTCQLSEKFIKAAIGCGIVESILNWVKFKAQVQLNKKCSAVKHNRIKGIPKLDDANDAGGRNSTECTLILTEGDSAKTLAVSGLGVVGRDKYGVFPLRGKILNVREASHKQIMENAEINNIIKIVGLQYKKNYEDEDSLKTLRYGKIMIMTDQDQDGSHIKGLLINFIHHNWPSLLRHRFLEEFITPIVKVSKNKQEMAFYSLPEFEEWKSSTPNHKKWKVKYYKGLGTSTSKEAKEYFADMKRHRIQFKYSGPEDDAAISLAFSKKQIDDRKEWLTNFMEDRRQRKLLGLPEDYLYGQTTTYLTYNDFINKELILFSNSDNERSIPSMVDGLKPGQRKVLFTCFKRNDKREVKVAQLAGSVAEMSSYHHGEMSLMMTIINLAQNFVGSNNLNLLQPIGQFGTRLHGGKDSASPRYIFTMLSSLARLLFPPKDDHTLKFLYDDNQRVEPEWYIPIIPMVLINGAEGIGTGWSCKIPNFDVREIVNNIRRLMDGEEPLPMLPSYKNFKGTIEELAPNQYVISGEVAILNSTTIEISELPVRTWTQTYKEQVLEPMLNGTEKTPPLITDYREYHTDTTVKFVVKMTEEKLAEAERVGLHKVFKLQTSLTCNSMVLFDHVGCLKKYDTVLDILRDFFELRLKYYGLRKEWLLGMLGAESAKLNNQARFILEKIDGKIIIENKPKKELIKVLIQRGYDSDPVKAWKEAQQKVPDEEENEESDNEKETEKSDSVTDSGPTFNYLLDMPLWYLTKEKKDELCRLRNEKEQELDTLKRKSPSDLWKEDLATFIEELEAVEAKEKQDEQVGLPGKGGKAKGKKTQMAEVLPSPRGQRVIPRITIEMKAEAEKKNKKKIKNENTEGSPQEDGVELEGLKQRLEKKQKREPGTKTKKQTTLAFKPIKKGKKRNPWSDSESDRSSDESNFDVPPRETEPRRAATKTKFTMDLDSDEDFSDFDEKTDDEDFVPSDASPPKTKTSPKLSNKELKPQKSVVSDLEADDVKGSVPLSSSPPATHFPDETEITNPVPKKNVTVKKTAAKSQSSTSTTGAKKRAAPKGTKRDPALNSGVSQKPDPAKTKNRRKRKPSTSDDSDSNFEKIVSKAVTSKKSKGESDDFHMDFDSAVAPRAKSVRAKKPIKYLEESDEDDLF

HepG2 = experiment: Antiproliferative activity against human HepG2 cells assessed as reduction in cell viability incubated for 48 hrs by MTT assay; format: functional, cell-based; settings: HepG2, 48 h
K562 = experiment: Antiproliferative activity against human K562 cells assessed as reduction in cell viability incubated for 48 hrs by MTT assay; format: functional, cell-based; settings: K562, 48 h

O=c1c2cc(O)ccc2[nH]c2c([N+](=O)[O-])ccc(NCc3ccc(O)cc3)c12
IC50 (HeLa): > 20 µM | IC50 (HCT-116): > 20 µM | IC50 (SW480): > 20 µM

COc1ccc2[nH]c3c(N)ccc(Nc4ccc(OC)c(OC)c4)c3c(=O)c2c1
IC50 (HeLa): 6.2 µM | IC50 (HCT-116): 4.6 µM | IC50 (SW480): 8.6 µM

COc1ccc2[nH]c3c([N+](=O)[O-])ccc(Nc4ccc(O)cc4)c3c(=O)c2c1
IC50 (HeLa): 7.5 µM | inhibition [1]: Active | IC50 (HCT-116): 11.8 µM | IC50 (SW480): 17.1 µM

COc1ccc2[nH]c3c(N)ccc(NCCc4cccc(C(F)(F)F)c4)c3c(=O)c2c1
IC50 (HeLa): > 20 µM | IC50 (HCT-116): > 20 µM | IC50 (SW480): > 20 µM

COc1ccc(CCNc2ccc(N)c3[nH]c4ccc(F)cc4c(=O)c23)cc1OC
IC50 (HeLa): 12.3 µM | IC50 (HCT-116): 17.5 µM | IC50 (SW480): 11.3 µM

COc1ccc2[nH]c3c([N+](=O)[O-])ccc(NCc4ccc(O)cc4)c3c(=O)c2c1
IC50 (HeLa): > 20 µM | IC50 (HCT-116): 12.4 µM | IC50 (SW480): > 20 µM

COc1ccc(Nc2ccc([N+](=O)[O-])c3[nH]c4ccc(O)cc4c(=O)c23)cc1OC
IC50 (HeLa): > 20 µM | inhibition [1]: inactive | IC50 (HCT-116): > 20 µM | IC50 (SW480): > 20 µM

O=c1c2cc(O)ccc2[nH]c2c([N+](=O)[O-])ccc(NCc3cccnc3)c12
IC50 (HeLa): > 20 µM | inhibition [1]: inactive | IC50 (HCT-116): > 20 µM | IC50 (SW480): > 20 µM

CN1CCN(Cc2ccc(Nc3ccc([N+](=O)[O-])c4[nH]c5ccc(O)cc5c(=O)c34)cc2)CC1
IC50 (HeLa): 0.6 µM | inhibition [1]: Active | IC50 (HCT-116): 0.4 µM | IC50 (SW480): 0.3 µM

COc1ccc2[nH]c3c([N+](=O)[O-])ccc(Nc4ccc(CN5CCCCC5)cc4)c3c(=O)c2c1
IC50 (HeLa): 1.7 µM | inhibition [1]: Active | IC50 (HCT-116): 5.7 µM | IC50 (SW480): 8.8 µM

CCCCCCCCCCCCOc1ccc(OCCCCNCCCCNCCCNCCC)c2c1C(=O)c1ccccc1C2=O
IC50 (HepG2): 8.8 µM

COc1cccc(Nc2ccc([N+](=O)[O-])c3[nH]c4ccc(O)cc4c(=O)c23)c1
IC50 (HeLa): > 20 µM | inhibition [1]: Active | IC50 (HCT-116): > 20 µM | IC50 (SW480): > 20 µM

COc1ccc2[nH]c3c(N)ccc(Nc4ccc(N5CCOCC5)cc4)c3c(=O)c2c1
IC50 (HeLa): 17.5 µM | IC50 (HCT-116): 17.8 µM | IC50 (SW480): 3.8 µM

CN1CCN(CCNc2ccc([N+](=O)[O-])c3[nH]c4ccc(O)cc4c(=O)c23)CC1
IC50 (HeLa): 1.2 µM | inhibition [1]: Active | IC50 (HCT-116): 0.7 µM | IC50 (SW480): 1.2 µM

COc1ccc2[nH]c3c([N+](=O)[O-])ccc(Nc4ccc(N5CCN(C)CC5)cc4)c3c(=O)c2c1
IC50 (HeLa): > 20 µM | IC50 (HCT-116): > 20 µM | IC50 (SW480): > 20 µM

CCCCCCCCCCCOc1ccc(OCc2ccc(C(=O)N[C@@H](CCC(=O)O)C(=O)O)cc2)c2c1C(=O)c1ccccc1C2=O
IC50 (K562): 0.77 µM

O=c1c2cc(O)ccc2[nH]c2c([N+](=O)[O-])ccc(Nc3ccc(Cn4cncn4)cc3)c12
IC50 (HeLa): 7.6 µM | inhibition [1]: Active | IC50 (HCT-116): 3.9 µM | IC50 (SW480): 2.3 µM

COc1ccc2[nH]c3c([N+](=O)[O-])ccc(NCCc4ccc(OC)c(OC)c4)c3c(=O)c2c1
IC50 (HeLa): 12.8 µM | IC50 (HCT-116): > 20 µM | IC50 (SW480): 19.7 µM

O=c1c2cc(O)ccc2[nH]c2c([N+](=O)[O-])ccc(NCc3ccsc3)c12
IC50 (HeLa): > 20 µM | inhibition [1]: Active | IC50 (HCT-116): > 20 µM | IC50 (SW480): > 20 µM

COc1ccc2[nH]c3c([N+](=O)[O-])ccc(NCc4cccs4)c3c(=O)c2c1
IC50 (HeLa): > 20 µM | IC50 (HCT-116): > 20 µM | IC50 (SW480): > 20 µM

COc1ccc2[nH]c3c([N+](=O)[O-])ccc(NCc4ccco4)c3c(=O)c2c1
IC50 (HeLa): > 20 µM | IC50 (HCT-116): > 20 µM | IC50 (SW480): > 20 µM

COc1ccc2[nH]c3c([N+](=O)[O-])ccc(NCCc4ccc(O)c(O)c4)c3c(=O)c2c1
IC50 (HeLa): > 20 µM | IC50 (HCT-116): > 20 µM | IC50 (SW480): 6.5 µM

O=c1c2cc(O)ccc2[nH]c2c([N+](=O)[O-])ccc(NCc3cccs3)c12
IC50 (HeLa): > 20 µM | inhibition [1]: inactive | IC50 (HCT-116): > 20 µM | IC50 (SW480): > 20 µM

O=c1c2cc(O)ccc2[nH]c2c([N+](=O)[O-])ccc(NCCc3cccc(C(F)(F)F)c3)c12
IC50 (HeLa): 7.6 µM | IC50 (HCT-116): > 20 µM | IC50 (SW480): 11.7 µM

COc1ccc2[nH]c3c([N+](=O)[O-])ccc(Nc4ccc(N5CCOCC5)cc4)c3c(=O)c2c1
IC50 (HeLa): > 20 µM | IC50 (HCT-116): > 20 µM | IC50 (SW480): > 20 µM

COc1ccc2[nH]c3c([N+](=O)[O-])ccc(NCCc4cccc(C(F)(F)F)c4)c3c(=O)c2c1
IC50 (HeLa): 12.4 µM | IC50 (HCT-116): > 20 µM | IC50 (SW480): 12.4 µM

O=c1c2cc(O)ccc2[nH]c2c([N+](=O)[O-])ccc(NCc3ccco3)c12
IC50 (HeLa): 12.2 µM | inhibition [1]: Active | IC50 (HCT-116): > 20 µM | IC50 (SW480): 15.5 µM

O=C1c2c(O)ccc(O)c2C(=O)c2c(NCCNCCO)ccc(NCCNCCO)c21 [MITOXANTRONE]
IC50 (HepG2): 15.3 µM | IC50 (K562): 2.35 µM

COc1cc(Nc2ccc([N+](=O)[O-])c3[nH]c4ccc(O)cc4c(=O)c23)cc(OC)c1
IC50 (HeLa): > 20 µM | inhibition [1]: Active | IC50 (HCT-116): > 20 µM | IC50 (SW480): > 20 µM

O=c1c2cc(F)ccc2[nH]c2c([N+](=O)[O-])ccc(NCc3ccc(O)cc3)c12
IC50 (HeLa): 10.5 µM | IC50 (HCT-116): > 20 µM | IC50 (SW480): > 20 µM

O=c1c2cc(O)ccc2[nH]c2c([N+](=O)[O-])ccc(Nc3ccc(O)cc3)c12
IC50 (HeLa): > 20 µM | inhibition [1]: Active | IC50 (HCT-116): > 20 µM | IC50 (SW480): > 20 µM

Nc1ccc(NCCc2cccc(C(F)(F)F)c2)c2c(=O)c3cc(O)ccc3[nH]c12
IC50 (HeLa): > 20 µM | IC50 (HCT-116): > 50 µM | IC50 (SW480): > 20 µM

CN1CCN(c2ccc(Nc3ccc([N+](=O)[O-])c4[nH]c5ccc(O)cc5c(=O)c34)cc2)CC1
IC50 (HeLa): 4.8 µM | inhibition [1]: Active | IC50 (HCT-116): 1.5 µM | IC50 (SW480): 1.1 µM

COc1ccc2[nH]c3c(N)ccc(Nc4ccc(-n5cncn5)cc4)c3c(=O)c2c1
IC50 (HeLa): 16.8 µM | inhibition [1]: Active | IC50 (HCT-116): > 20 µM | IC50 (SW480): 15.7 µM

O=c1c2cc(O)ccc2[nH]c2c([N+](=O)[O-])ccc(Nc3ccc(CN4CCCCC4)cc3)c12
IC50 (HeLa): 1.1 µM | inhibition [1]: Active | IC50 (HCT-116): 2.5 µM | IC50 (SW480): 2.3 µM

COc1ccc2[nH]c3c(N)ccc(NCCc4ccc(O)c(O)c4)c3c(=O)c2c1
IC50 (HeLa): > 50 µM | IC50 (HCT-116): > 50 µM | IC50 (SW480): > 50 µM

CCN(CC)CCNc1ccc2ncn3c4ccc(O)cc4c(=O)c1c23 [C-1311]
IC50 (HCT-116): 0.3 µM | IC50 (SW480): 0.48 µM

COc1ccc(CCNc2ccc([N+](=O)[O-])c3[nH]c4ccc(F)cc4c(=O)c23)cc1OC
IC50 (HeLa): 4.5 µM | IC50 (HCT-116): > 20 µM | IC50 (SW480): 8.8 µM

COc1ccc(CCNc2ccc(N)c3[nH]c4ccc(O)cc4c(=O)c23)cc1OC
IC50 (HeLa): 17.2 µM | IC50 (HCT-116): > 50 µM | IC50 (SW480): > 50 µM

COc1ccc(CCNc2ccc([N+](=O)[O-])c3[nH]c4ccc(O)cc4c(=O)c23)cc1OC
IC50 (HeLa): > 20 µM | IC50 (HCT-116): > 20 µM | IC50 (SW480): > 20 µM

O=c1c2cc(O)ccc2[nH]c2c([N+](=O)[O-])ccc(NCc3ccc(F)cc3)c12
IC50 (HeLa): > 20 µM | IC50 (HCT-116): > 20 µM | IC50 (SW480): > 20 µM

COc1ccc2[nH]c3c([N+](=O)[O-])ccc(NCCCN4CCN(C)CC4)c3c(=O)c2c1
IC50 (HeLa): 0.9 µM | inhibition [1]: Active | IC50 (HCT-116): 1 µM | IC50 (SW480): 2 µM

COc1cc([C@@H]2c3cc4c(cc3[C@@H](O[C@@H]3O[C@@H]5CO[C@@H](C)O[C@H]5[C@H](O)[C@H]3O)[C@H]3COC(=O)[C@H]23)OCO4)cc(OC)c1O [ETOPOSIDE]
inhibition [1]: Active | IC50 (HCT-116): 1.7 µM | IC50 (SW480): 0.6 µM | IC50 (K562): 10.8 µM

COc1ccc2[nH]c3c([N+](=O)[O-])ccc(NCc4cccnc4)c3c(=O)c2c1
IC50 (HeLa): > 20 µM | IC50 (HCT-116): > 20 µM | IC50 (SW480): > 20 µM

COc1ccc2[nH]c3c(N)ccc(NCCc4ccc(OC)c(OC)c4)c3c(=O)c2c1
IC50 (HeLa): 8.8 µM | IC50 (HCT-116): 8.8 µM | IC50 (SW480): 15.6 µM

COc1ccc(Nc2ccc([N+](=O)[O-])c3[nH]c4ccc(O)cc4c(=O)c23)cc1
IC50 (HeLa): > 20 µM | inhibition [1]: Active | IC50 (HCT-116): > 20 µM | IC50 (SW480): > 20 µM

CCCCCCCCCCCOc1ccc(OCc2ccc(C(=O)N[C@@H](Cc3ccccc3)C(=O)O)cc2)c2c1C(=O)c1ccccc1C2=O
IC50 (K562): 1.82 µM

O=c1c2cc(O)ccc2[nH]c2c([N+](=O)[O-])ccc(Nc3ccc(N4CCOCC4)cc3)c12
IC50 (HeLa): 6.4 µM | IC50 (HCT-116): 5.9 µM | IC50 (SW480): 2.4 µM

COc1ccc(Nc2ccc(N)c3[nH]c4ccc(OC)cc4c(=O)c23)cc1
IC50 (HeLa): > 12.5 µM | IC50 (HCT-116): > 12.5 µM | IC50 (SW480): > 25 µM
